Source: patent US20230141603A1, “BENZODIAZEPINE DERIVATIVES AS GABA A GAMMA1 PAM” (Hoffmann-La Roche Inc., priority 2021, published 2023)

The compounds below were run against T1, h-GABAA α1β2γ1 (Homo sapiens, UniProt P14867+Q8N1C3) (assay: Radioligand binding assay, [3H]RO7239181 competition, HEK293F membranes).
T1 construct: expressed in transfected cells; host or cells: HEK293F cells (ThermoFisher R79007), membranes
T1 sequence (P14867 28-456): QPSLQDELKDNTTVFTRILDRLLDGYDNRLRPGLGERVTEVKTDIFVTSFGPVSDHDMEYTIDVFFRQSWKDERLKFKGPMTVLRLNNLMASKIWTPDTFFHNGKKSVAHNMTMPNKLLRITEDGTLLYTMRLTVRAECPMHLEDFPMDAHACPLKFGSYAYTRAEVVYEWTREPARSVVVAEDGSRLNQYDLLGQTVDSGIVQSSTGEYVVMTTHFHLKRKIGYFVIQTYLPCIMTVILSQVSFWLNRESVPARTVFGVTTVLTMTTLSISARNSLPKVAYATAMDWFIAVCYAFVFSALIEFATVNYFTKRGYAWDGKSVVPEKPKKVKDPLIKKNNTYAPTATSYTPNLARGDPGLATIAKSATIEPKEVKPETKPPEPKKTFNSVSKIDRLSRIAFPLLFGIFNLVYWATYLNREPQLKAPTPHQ
T1 sequence (P47870 25-512 partner limits assumed): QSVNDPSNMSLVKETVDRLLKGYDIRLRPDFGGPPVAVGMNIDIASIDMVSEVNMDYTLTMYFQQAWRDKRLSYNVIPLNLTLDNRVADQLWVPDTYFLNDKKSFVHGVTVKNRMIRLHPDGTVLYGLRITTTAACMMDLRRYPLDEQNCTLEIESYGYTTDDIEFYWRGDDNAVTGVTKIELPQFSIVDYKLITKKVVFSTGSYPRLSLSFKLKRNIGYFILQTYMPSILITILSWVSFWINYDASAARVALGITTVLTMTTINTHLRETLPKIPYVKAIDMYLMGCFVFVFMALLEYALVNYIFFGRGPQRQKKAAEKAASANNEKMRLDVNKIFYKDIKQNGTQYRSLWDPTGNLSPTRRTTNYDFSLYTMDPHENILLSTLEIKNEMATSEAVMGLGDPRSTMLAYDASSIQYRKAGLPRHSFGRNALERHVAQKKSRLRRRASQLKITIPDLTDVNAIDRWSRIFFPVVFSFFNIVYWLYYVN
T1 sequence (Q8N1C3 36-465): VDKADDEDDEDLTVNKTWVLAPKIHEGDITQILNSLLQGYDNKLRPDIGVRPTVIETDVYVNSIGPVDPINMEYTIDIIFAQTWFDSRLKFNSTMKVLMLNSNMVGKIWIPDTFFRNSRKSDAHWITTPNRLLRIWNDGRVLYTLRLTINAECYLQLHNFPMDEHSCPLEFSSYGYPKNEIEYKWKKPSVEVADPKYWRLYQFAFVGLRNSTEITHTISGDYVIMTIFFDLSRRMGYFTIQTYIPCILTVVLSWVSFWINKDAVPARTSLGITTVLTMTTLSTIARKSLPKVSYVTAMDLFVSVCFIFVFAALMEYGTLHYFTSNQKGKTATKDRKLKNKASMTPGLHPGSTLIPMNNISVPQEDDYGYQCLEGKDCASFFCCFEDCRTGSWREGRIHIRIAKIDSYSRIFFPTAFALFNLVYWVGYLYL
In the case of `Fc1cccnc1C1=NCc2nnc(-c3ccncn3)n2-c2ccc(Br)c(Cl)c21` [Example 46, 8-bromo-7-chloro-6-(3-fluoro-2-pyridyl)-1-pyrimidin-4-yl-4H-[1,2,4]triazolo[4,3-a][1,4]benzodiazepine], the Ki is reported as 60.5 nM. Compound `Clc1cccnc1C1=NCc2nnc(-c3cccnn3)n2-c2ccc(Br)c(Cl)c21` [Example 47, 8-bromo-7-chloro-6-(3-chloro-2-pyridyl)-1-pyridazin-3-yl-4H-[1,2,4]triazolo[4,3-a][1,4]benzodiazepine] has a Ki of 7 nM. For `Cc1ccc2c(c1Cl)C(c1c(F)cccc1F)=NCc1nnc(-c3cccnn3)n1-2` [Example 48, 7-chloro-6-(2,6-difluorophenyl)-8-methyl-1-pyridazin-3-yl-4H-[1,2,4]triazolo[4,3-a][1,4]benzodiazepine], the Ki was 20.8 nM. Compound `Cc1ccc2c(c1Cl)C(c1c(F)cccc1F)=NCc1nnc(-c3ccncn3)n1-2` [Example 49, 7-chloro-6-(2,6-difluorophenyl)-8-methyl-1-pyrimidin-4-yl-4H-[1,2,4]triazolo[4,3-a][1,4]benzodiazepine] has a Ki of 40.5 nM. In the case of `Cc1nnc2n1-c1ccc(Br)c(Cl)c1C(c1c(F)cccc1Cl)=NC2` [Example 50, 8-bromo-7-chloro-6-(2-chloro-6-fluoro-phenyl)-1-methyl-4H-[1,2,4]triazolo[4,3-a][1,4]benzodiazepine], the Ki is reported as 8.9 nM. With `Fc1cccnc1C1=NCc2nnc(-c3cccnn3)n2-c2ccc(Cl)c(Cl)c21` [Example 54, 7,8-dichloro-6-(3-fluoro-2-pyridyl)-1-pyridazin-3-yl-4H-[1,2,4]triazolo[4,3-a][1,4]benzodiazepine] the Ki was 121 nM. With `Fc1cccnc1C1=NCc2nnc(-c3ccncn3)n2-c2ccc(Cl)c(Cl)c21` [Example 55, 7,8-dichloro-6-(3-fluoro-2-pyridyl)-1-pyrimidin-4-yl-4H-[1,2,4]triazolo[4,3-a][1,4]benzodiazepine] the Ki was 133 nM. `COc1ccc2c(c1Cl)C(c1c(F)cccc1F)=NCc1nnc(-c3cccnn3)n1-2` [Example 57, 7-chloro-6-(2,6-difluorophenyl)-8-methoxy-1-pyridazin-3-yl-4H-[1,2,4]triazolo[4,3-a][1,4]benzodiazepine] showed a Ki of 170 nM. In the case of `Cn1cc(-c2nnc3n2-c2ccc(Cl)c(Cl)c2C(c2ncccc2F)=NC3)cn1` [Example 58, 7,8-dichloro-6-(3-fluoro-2-pyridyl)-1-(1-methylpyrazol-4-yl)-4H-[1,2,4]triazolo[4,3-a][1,4]benzodiazepine], the Ki is reported as 131 nM. Compound `O=c1[nH]nc2n1-c1ccc(Cl)c(Cl)c1C(c1ncccc1F)=NC2` [Example 59, 7,8-dichloro-6-(3-fluoro-2-pyridyl)-2,4-dihydro-[1,2,4]triazolo[4,3-a][1,4]benzodiazepin-1-one] has a Ki of 54 nM. `Fc1cccnc1C1=NCc2nncn2-c2ccc(Cl)c(Cl)c21` [Example 60, 7,8-dichloro-6-(3-fluoro-2-pyridyl)-4H-[1,2,4]triazolo[4,3-a][1,4]benzodiazepine] showed a Ki of 161 nM. `COc1ccc2c(c1Cl)C(c1c(F)cccc1F)=NCc1nnc(-c3ccncn3)n1-2` [Example 61, 7-chloro-6-(2,6-difluorophenyl)-8-methoxy-1-pyrimidin-4-yl-4H-[1,2,4]triazolo[4,3-a][1,4]benzodiazepine] was tested, and the Ki was 119 nM. In the case of `COc1ccc2c(c1Cl)C(c1c(F)cccc1F)=NCc1nnc(-c3cccnc3)n1-2` [Example 62, 7-chloro-6-(2,6-difluorophenyl)-8-methoxy-1-(3-pyridyl)-4H-[1,2,4]triazolo[4,3-a][1,4]benzodiazepine], the Ki is reported as 161 nM. For `Fc1cccnc1C1=NCc2nnc(C3CC3)n2-c2ccc(Cl)c(Cl)c21` [Example 65, 7,8-dichloro-1-cyclopropyl-6-(3-fluoro-2-pyridyl)-4H-[1,2,4]triazolo[4,3-a][1,4]benzodiazepine], the Ki was 110 nM. For `Fc1cccnc1C1=NCc2nnc(-c3ccncn3)n2-c2ccc(C(F)(F)F)c(Cl)c21` [Example 69, 7-chloro-6-(3-fluoro-2-pyridyl)-1-pyrimidin-4-yl-8-(trifluoromethyl)-4H-[1,2,4]triazolo[4,3-a][1,4]benzodiazepine], the Ki was 139 nM. For `Cn1cc(-c2nnc3n2-c2ccc(C(F)(F)F)c(Cl)c2C(c2ncccc2F)=NC3)cn1` [Example 70, 7-chloro-6-(3-fluoro-2-pyridyl)-1-(1-methylpyrazol-4-yl)-8-(trifluoromethyl)-4H-[1,2,4]triazolo[4,3-a][1,4]benzodiazepine], the Ki was 275 nM. Compound `Cc1nnc2n1-c1ccc(Cl)c(Cl)c1C(c1ncccc1F)=NC2` [Example 71, 7,8-dichloro-6-(3-fluoro-2-pyridyl)-1-methyl-4H-[1,2,4]triazolo[4,3-a][1,4]benzodiazepine] has a Ki of 178 nM. Compound `Fc1cccnc1C1=NCc2nnc(-c3cccnn3)n2-c2ccc(C(F)(F)F)c(Cl)c21` [Example 72, 7-chloro-6-(3-fluoro-2-pyridyl)-1-pyridazin-3-yl-8-(trifluoromethyl)-4H-[1,2,4]triazolo[4,3-a][1,4]benzodiazepine] has a Ki of 274 nM. In the case of `Fc1cccnc1C1=NCc2nnc(C3CC3)n2-c2ccc(Br)c(Cl)c21` [Example 77, 8-bromo-7-chloro-1-cyclopropyl-6-(3-fluoro-2-pyridyl)-4H-[1,2,4]triazolo[4,3-a][1,4]benzodiazepine], the Ki is reported as 41.5 nM. `Cc1nnc2n1-c1ccc(C(F)(F)F)c(Cl)c1C(c1ncccc1F)=NC2` [Example 78, 7-chloro-6-(3-fluoro-2-pyridyl)-1-methyl-8-(trifluoromethyl)-4H-[1,2,4]triazolo[4,3-a][1,4]benzodiazepine] gave a Ki of 67.7 nM. `COc1ccc2c(c1Cl)C(c1c(F)cccc1F)=NCc1nnc(C3CC3)n1-2` [Example 79, 7-chloro-1-cyclopropyl-6-(2,6-difluorophenyl)-8-methoxy-4H-[1,2,4]triazolo[4,3-a][1,4]benzodiazepine] gave a Ki of 80.1 nM. `CO[C@H]1C[C@H](c2nnc3n2-c2ccc(Cl)c(Cl)c2C(c2c(F)cccc2F)=NC3)C1` [Example 91, trans-7,8-dichloro-6-(2,6-difluorophenyl)-1-(3-methoxycyclobutyl)-4H-[1,2,4]triazolo[4,3-a][1,4]benzodiazepine] showed a Ki of 51.3 nM. In the case of `Fc1cccc(F)c1C1=NCc2nnc(-c3cccnn3)n2-c2ccc(Br)c(Cl)c21` [Example 104, 8-bromo-7-chloro-6-(2,6-difluorophenyl)-1-pyridazin-3-yl-4H-[1,2,4]triazolo[4,3-a][1,4]benzodiazepine], the Ki is reported as 4.2 nM. `Cc1ncc2n1-c1ccc(Cl)cc1C(c1ccccc1F)=NC2` [Midazolam, reference compound] gave a Ki of 1150 nM.
